Columns and labels:
[1] = Particle size and polydispersity index (PDI) of lipid nanoparticles by dynamic light scattering; assay type: physicochemical; conditions: LNP formulation prepared from the cationic lipid, 25° C.
Protocol: The particle size and polydispersity index (PDI) were determined by dynamic light scattering using Malvern laser particle size analyzer.
10 μL of the liposome solution was weighed, diluted to 1 mL with RNase-free deionized water, and added to the sample pool. Each sample was measured in triplicate. The measurement conditions were: […] scattering angle, and 25° C.

293T cells [2] = experiment: Fluorescent detection of Fluc-mRNA (cell transfection efficiency of LNP formulations); assay type: cell-based; conditions: for Relative light unit (RLU): LNP formulation of Fluc-mRNA, 96-well plate, 24 hours; for Multiples (YK-305): RLU of YK-305 / RLU of the lipid of the line; for Multiples (YK-310): RLU of YK-310 / RLU of the lipid of the line; for Multiples (YK-312): RLU of YK-312 / RLU of the lipid of the line; for Multiples (YK-318): RLU of YK-318 / RLU of the lipid of the line; for Multiples (YK-318) / Multiples (YK-319): Tables 5, 7, 11; for Multiples (YK-319): RLU of YK-319 / RLU of the lipid of the line; for Ratio relative to SM-102: RLU of the lipid / RLU of SM-102, times that of SM-102
Summary of the method: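 293T cells were seeded at 10,000/well and cultured overnight, then given LNP carrying […] Fluc-mRNA (cationic:neutral:structured:polymer-conjugated lipid 49:10:39.5:1.5 molar) for 24 h. Luminescence was developed with […] and imaged on IVIS.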

293T cells [3] = experiment: Cell survival rate determination (CCK-8); assay type: cell-based; conditions: LNP formulation of Fluc-mRNA, 24 hours, CCK-8
Summary of the method: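 293T cells plated at 10,000/well (96-well), adhered overnight, then exposed 24 h to Fluc-mRNA LNP (cationic:neutral:structured:PEG-lipid 49:10:39.5:1.5) or Lipofectamine 3000. Viability by CCK-8, 1 h incubation, absorbance at 450 nm.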

female BALB/C mice = experiment: Live imaging in mice: protein expression of Fluc-mRNA delivered by LNP formulations; assay type: in vivo
Protocol: In addition, the protein expression and duration of mRNA in mice delivered by the cationic lipid delivery carriers designed were also verified.
(§1) The LNP formulation containing […] Fluc-mRNA was injected intramuscularly into female BALB/C mice aged 4 to 6 weeks old and weighed 17 to 19 g, and the mice were intraperitoneally injected with fluorescent imaging substrate at specific time points after administration (6 h, 24 h, 48 h and 7 d), where the mice were free to move for 5 minutes, and then the average radiation intensity (corresponding to fluorescence expression intensity) of the protein expression of the mRNA carried by the LNP in the mice was detected by the IVIS Spectrum small animal live imaging device.

liver = experiment: Distribution of liposomes in mice: protein expression in the liver (live imaging); assay type: in vivo; conditions: at 6 h, intramuscular injection
Protocol: as §1
At 24 h, the LNP formulations prepared from all compounds had been metabolized in the liver and had no protein expression.

[4] = 6 h after intramuscular injection
[5] = 24 h after intramuscular injection
[6] = 48 h after intramuscular injection
[7] = 7 d after intramuscular injection

PDI (%) [1] | Particle size (nm) [1] | protein expression in the liver (liver) | Compound | Relative light unit (RLU) (293T cells [2]) | Multiples (YK-305) (293T cells [2]) | Multiples (YK-310) (293T cells [2]) | Multiples (YK-312) (293T cells [2]) | Multiples (YK-318) (293T cells [2]) | Multiples (YK-319) (293T cells [2]) | Ratio relative to SM-102 (293T cells [2]) | Cell survival rate (%) (293T cells [3]) | average radiation intensity (female BALB/C mice; [4]) | average radiation intensity (female BALB/C mice; [5]) | average radiation intensity (female BALB/C mice; [6]) | average radiation intensity (female BALB/C mice; [7])
19.3% | 150 nm | had protein expression in the liver | CCCCCCCCCCCCC(O)CN(C)CCCCCC(=O)OCC(CCCCCC)CCCCCCCC (stereo not shown) [HHMA, reference compound] | 2006110 RLU | 13.66 | 12.86 | 10.04 | 5.58 | 12.20 | 1.25 | 66.47% | 651020 | 119940 | 32557 | 5871
17.7% | 241 nm | no protein expression in the liver | CCCCCCCCC(CCCCCCCC)OC(=O)CCCCCN(CCCCCC(=O)OC(CCCCCCCC)CCCCCCCC)C[C@H](O)CN(CC)CCO [YK-313] | 866536 RLU | 31.63 | 29.77 | 23.25 | – | – | 0.54 | 68.93% | 442180 | 104430 | 25560 | 3235
28.2% | 177 nm | had protein expression in the liver | CCCCCCCCCCCOC(=O)CCCCCN(CCO)CCCCCCCC(=O)OC(CCCCCCCC)CCCCCCCC [SM-102, reference compound] | – | – | 16.08 | 12.56 | 6.98 | 15.25 | 1.00 | 69.45% | 701230 | – | – | –
15.2% | 147 nm | had protein expression in the liver | CCCCCCC(CCCCCC)CCOC(=O)CCCCCCCN(CCO)CCCCCCCC(=O)OCCC(CCCCCC)CCCCCC [Compound 23, bis(3-hexylnonyl)-8,8′-((2-hydroxyethyl)azanediyl)dioctanoate, reference compound] | 1356022 RLU | 20.21 | 19.02 | 14.86 | 8.25 | 18.04 | 0.85 | 71.50% | 589400 | 104530 | 33125 | 6240
21.2% | 231 nm | had protein expression in the liver | CCCCCCCCC(CCCCCC)C(=O)OCCCCCCN(CCCCO)CCCCCCOC(=O)C(CCCCCC)CCCCCCCC (stereo not shown) [ALC-0315, reference compound] | – | 13.48 | 12.69 | 9.91 | 5.50 | 12.03 | 1.27 | 51.03% | 863760 | 190480 | 39810 | 7047

From patent US20260007613A1, “LONG-ACTING LOW-TOXICITY NOVEL CATIONIC LIPID COMPOUNDS AND COMPOSITION THEREOF” (BEIJING YOUCAREKECHUANG PHARMACEUTICAL TECHNOLOGY CO., LTD., priority 2023, published 2026)
